From ChEMBL document CHEMBL1201862, “PubChem BioAssay data set” (2004)
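Dose response: 5 concentrations. Exposure: 48 h. Format: 96-well plates. Endpoint: linear interpolation; highest concentration if not reached. GI50 = concentration required for 50% inhibition of growth.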 The source made the active and inactive calls. No stated cut-off is given here; in the data, active = GI50 up to about 1.1 µM and inactive = higher.

How the values were obtained:
Assay in all cases: inhibition of tumour cell growth, NCI panel, 48 h
Hs-578T = test system: Hs-578T
SN12C = test system: SN12C
SNB-75 = test system: SNB-75
TK-10 = test system: TK-10
HCC 2998 = test system: HCC 2998
OVCAR-8 = test system: OVCAR-8
K562 = test system: K562
SNB-19 = test system: SNB-19
COLO 205 = test system: COLO 205
DU-145 = test system: DU-145
KM12 = test system: KM12
SF-268 = test system: SF-268
M14 = test system: M14
EKVX = test system: EKVX
786-0 = test system: 786-0
BT-549 = test system: BT-549
SK-MEL-28 = test system: SK-MEL-28
MDA-MB-231 = test system: MDA-MB-231
SK-MEL-2 = test system: SK-MEL-2

Measured: GI50

N=C(N)NNC(=O)C(=O)O
inactive: Hs-578T > 100 µM | SN12C > 100 µM | SNB-75 > 100 µM | TK-10 > 100 µM | HCC 2998 > 100 µM | OVCAR-8 > 100 µM | K562 > 100 µM | SNB-19 > 100 µM | COLO 205 > 100 µM | DU-145 > 100 µM | KM12 > 100 µM | SF-268 > 100 µM | M14 > 100 µM | EKVX > 100 µM | 786-0 > 100 µM | BT-549 > 100 µM | SK-MEL-28 > 100 µM | MDA-MB-231 > 100 µM | SK-MEL-2 > 100 µM

COc1cc(C(c2cc3c(cc2O)OCO3)N2CCCCC2)cc(OC)c1OC (stereo not given)
inactive: Hs-578T 14 µM | SN12C 11.5 µM | SNB-75 16.8 µM | TK-10 17 µM | HCC 2998 22.2 µM | OVCAR-8 13.2 µM | K562 2.63 µM | SNB-19 20.6 µM | COLO 205 13.4 µM | DU-145 17.5 µM | KM12 18.2 µM | SF-268 15.8 µM | M14 6.28 µM | EKVX 18.7 µM | 786-0 5.86 µM | BT-549 12 µM | SK-MEL-28 16.7 µM | MDA-MB-231 15 µM | SK-MEL-2 15.7 µM

COC(=O)C1=C(C)C=C(N2CCOCC2)C(C(=O)OC)C1c1ccccc1 (stereo not given)
inactive: Hs-578T > 10 µM | SN12C > 10 µM | SNB-75 > 10 µM | TK-10 > 10 µM | HCC 2998 > 10 µM | OVCAR-8 > 10 µM | K562 > 10 µM | SNB-19 > 10 µM | COLO 205 > 10 µM | DU-145 > 10 µM | KM12 > 10 µM | SF-268 > 10 µM | M14 > 10 µM | EKVX > 10 µM | 786-0 > 10 µM | BT-549 > 10 µM | SK-MEL-28 > 10 µM | MDA-MB-231 > 10 µM | SK-MEL-2 > 10 µM

CC1=NN(C(=O)CC(=O)Nc2ccccc2)C(=O)C1/N=N/c1ccc(C(=O)O)cc1 (stereo not given)
inactive: Hs-578T 78.7 µM | SN12C > 100 µM | SNB-75 > 100 µM | TK-10 > 100 µM | HCC 2998 > 100 µM | OVCAR-8 > 100 µM | K562 > 100 µM | SNB-19 80.5 µM | COLO 205 > 100 µM | DU-145 > 100 µM | KM12 > 100 µM | SF-268 77.8 µM | M14 > 100 µM | EKVX > 100 µM | 786-0 > 100 µM | BT-549 > 100 µM | SK-MEL-28 > 100 µM | MDA-MB-231 > 100 µM | SK-MEL-2 > 100 µM

CCOc1ccc(-n2c(=O)c3nn4c(=O)n(-c5ccc(OCC)cc5)c(=O)c4nn3c2=O)cc1
inactive: Hs-578T 28.5 µM | SN12C > 100 µM | SNB-75 20.3 µM | TK-10 > 100 µM | HCC 2998 > 100 µM | OVCAR-8 > 100 µM | K562 > 100 µM | SNB-19 63 µM | COLO 205 > 100 µM | DU-145 > 100 µM | KM12 > 100 µM | SF-268 > 100 µM | M14 > 100 µM | EKVX > 100 µM | 786-0 70.1 µM | BT-549 64.6 µM | SK-MEL-28 > 100 µM | MDA-MB-231 71.8 µM | SK-MEL-2 39.4 µM

[N-]=[N+]=Nc1ccc2c(c1)Sc1ccccc1N2CCCCCl
inactive: Hs-578T 35.8 µM | SN12C > 100 µM | SNB-75 > 100 µM | TK-10 > 100 µM | HCC 2998 61.8 µM | OVCAR-8 69.8 µM | K562 14 µM | SNB-19 > 100 µM | COLO 205 18.7 µM | DU-145 > 100 µM | KM12 53.5 µM | SF-268 41.9 µM | M14 > 100 µM | EKVX 56 µM | 786-0 > 100 µM | BT-549 41.6 µM | SK-MEL-28 > 100 µM | MDA-MB-231 > 100 µM | SK-MEL-2 13.5 µM

[N-]=[N+]=C(C(=O)OCC#CCOC(=O)C(=[N+]=[N-])S(=O)(=O)c1ccccc1)S(=O)(=O)c1ccccc1
inactive: Hs-578T > 10 µM | SN12C > 10 µM | SNB-75 > 10 µM | TK-10 > 10 µM | HCC 2998 > 10 µM | OVCAR-8 > 10 µM | K562 > 10 µM | SNB-19 > 10 µM | COLO 205 > 10 µM | DU-145 > 10 µM | KM12 > 10 µM | SF-268 > 10 µM | M14 > 10 µM | EKVX > 10 µM | 786-0 > 10 µM | BT-549 > 10 µM | SK-MEL-28 > 10 µM | MDA-MB-231 > 10 µM | SK-MEL-2 > 10 µM

O=P1(c2ccccc2)c2ccccc2-c2ccccc21
inactive: Hs-578T > 100 µM | SN12C > 100 µM | SNB-75 68.9 µM | TK-10 > 100 µM | HCC 2998 > 100 µM | OVCAR-8 > 100 µM | K562 86.9 µM | SNB-19 > 100 µM | COLO 205 > 100 µM | DU-145 > 100 µM | KM12 > 100 µM | SF-268 > 100 µM | M14 > 10 µM | EKVX > 100 µM | 786-0 > 100 µM | BT-549 65.2 µM | SK-MEL-28 > 100 µM | MDA-MB-231 > 100 µM | SK-MEL-2 > 100 µM

Nc1nc(Sc2ccc([N+](=O)[O-])cn2)c2nc[nH]c2n1
inactive: Hs-578T 15.3 µM | SN12C 4.74 µM | SNB-75 5.2 µM | TK-10 9.08 µM | HCC 2998 12.8 µM | OVCAR-8 4.81 µM | K562 7.01 µM | SNB-19 23.8 µM | COLO 205 11.8 µM | DU-145 3.32 µM | KM12 7.38 µM | SF-268 4.35 µM | M14 3.16 µM | EKVX 7.53 µM | 786-0 5.74 µM | BT-549 8.45 µM | SK-MEL-28 33.8 µM | MDA-MB-231 5.9 µM | SK-MEL-2 2.47 µM

CC(C)c1cc(Cl)nc(Cl)n1
inactive: Hs-578T > 100 µM | SN12C > 100 µM | SNB-75 > 100 µM | TK-10 > 100 µM | HCC 2998 > 100 µM | OVCAR-8 > 100 µM | K562 > 100 µM | SNB-19 > 100 µM | COLO 205 > 100 µM | DU-145 > 100 µM | KM12 > 100 µM | SF-268 > 100 µM | M14 > 100 µM | EKVX > 100 µM | 786-0 > 100 µM | BT-549 > 100 µM | SK-MEL-28 > 100 µM | MDA-MB-231 > 100 µM | SK-MEL-2 > 100 µM

ONCCCn1cnc2c(NC3CC3)ncnc21
inactive: Hs-578T > 100 µM | SN12C > 100 µM | SNB-75 > 100 µM | TK-10 > 100 µM | HCC 2998 > 100 µM | OVCAR-8 > 100 µM | K562 > 100 µM | SNB-19 > 100 µM | COLO 205 > 100 µM | DU-145 > 100 µM | KM12 > 100 µM | SF-268 > 100 µM | M14 > 100 µM | EKVX > 100 µM | 786-0 > 100 µM | BT-549 > 100 µM | SK-MEL-28 > 100 µM | MDA-MB-231 > 100 µM | SK-MEL-2 > 100 µM

Cc1ccnc2[nH]c3ccccc3c(=O)c12
inactive: Hs-578T 16.3 µM | SN12C 21.3 µM | SNB-75 16.7 µM | TK-10 10.1 µM | HCC 2998 19.9 µM | OVCAR-8 27 µM | K562 33.2 µM | SNB-19 29.6 µM | COLO 205 19.8 µM | DU-145 30.2 µM | KM12 13.1 µM | SF-268 18.9 µM | M14 26.8 µM | EKVX 28.8 µM | 786-0 41.2 µM | BT-549 30.1 µM | SK-MEL-28 15.1 µM | MDA-MB-231 38.8 µM | SK-MEL-2 25.2 µM

CCOC(=O)c1nc2cc(C(F)(F)F)ccc2nc1Oc1ccc(C#N)cc1
inactive: Hs-578T > 100 µM | SN12C > 100 µM | SNB-75 > 100 µM | TK-10 > 100 µM | HCC 2998 80 µM | OVCAR-8 > 100 µM | K562 70.6 µM | SNB-19 > 100 µM | COLO 205 > 100 µM | DU-145 > 100 µM | KM12 > 100 µM | SF-268 > 100 µM | M14 > 100 µM | EKVX > 100 µM | 786-0 > 100 µM | BT-549 > 100 µM | SK-MEL-28 > 100 µM | MDA-MB-231 > 100 µM | SK-MEL-2 > 100 µM

CC(O)C(O)C(O)C(/C=N\Nc1ccccc1)=N/Nc1ccccc1 (stereo not given)
inactive: Hs-578T 11 µM | SN12C 16 µM | SNB-75 16.7 µM | TK-10 12.6 µM | HCC 2998 10.8 µM | OVCAR-8 13.2 µM | K562 6.78 µM | SNB-19 15.7 µM | COLO 205 14.3 µM | DU-145 15.1 µM | KM12 4.7 µM | SF-268 10.2 µM | M14 13.3 µM | EKVX 12.1 µM | 786-0 14.2 µM | BT-549 13.7 µM | SK-MEL-28 16.6 µM | MDA-MB-231 12.3 µM | SK-MEL-2 8.63 µM

O=C(/C=C/c1ccc(O)c(O)c1)Oc1ccccc1
inactive: Hs-578T 14.2 µM | SN12C 16 µM | SNB-75 13.1 µM | TK-10 28.1 µM | HCC 2998 18.6 µM | OVCAR-8 12.7 µM | K562 4.27 µM | SNB-19 20.4 µM | COLO 205 9.57 µM | DU-145 13.2 µM | KM12 9.29 µM | SF-268 7.59 µM | M14 15.5 µM | EKVX 18.6 µM | 786-0 10.6 µM | BT-549 14.9 µM | SK-MEL-28 22.5 µM | MDA-MB-231 23.1 µM | SK-MEL-2 15.7 µM
